Here are results for seven compounds from patent US5627169A, “Selective antagonists for GABArho receptor” (The Regents of The University of California, priority 1994, dated 1997).

Each structure is given as a SMILES string.

Assay [1] deals with GABArho receptors expressed by bovine retina RNA. Kind of assay: Electrical recording in Xenopus oocytes expressing GABArho receptors from bovine retina RNA. The assay is classed as cell-based. From the text:
(§1) Electrical recording techniques and the Xenopus oocyte expression system were used to determine the sensitivity of a variety of commonly used GABAA and GABAB receptor ligands to GABArho receptors expressed by bovine retina RNA.

The subject of assay [2] is GABAA receptors expressed by rat brain mRNA. Kind of assay: Xenopus oocytes expressing GABAA receptors from rat brain mRNA. Format: cell-based.
Assay [3] has as its system GABAA receptors expressed by bovine retina mRNA. Description: Xenopus oocytes expressing GABAA receptors from bovine retina mRNA. The assay is classed as cell-based.
From the text: as §1
When a methylphosphinic acid substituent was used to replace the carboxyl group of GABA in this compound, affects at GABAA receptors were prohibited, but relatively strong interactions at closed channel binding sites on GABArho receptors were detected.

For assay [4], the target named is T1, cloned GABArho receptors (Homo sapiens, UniProt P24046).
T1 construct: expressed in transfected cells; host or cells: Xenopus oocytes injected with cloned receptor RNA
Kind of assay: Membrane currents in Xenopus oocytes expressing cloned GABArho receptors. Format: cell-based. The protocol:
(§2) To test the new compounds synthesized, Xenopus oocytes were injected with the cloned GABA RNA and other oocytes were injected with native poly (A)^+ RNAs extracted from the rat cerebral cortex or spinal cord, bovine brain, rabbit brain, chick brain or optic lobe. […] The various concentrations of compound 7 were applied together with 10^-5M GABA.
To study the time to onset of antagonistic action by TPMPA, a timed trial utilizing pulsed application of GABA (10^-5 M) and TPMPA (8×10^-5 M) was begun. At the first marker pulse of 50 nA, GABA administration of GABA was begun. TPMPA was applied between the 2nd and 3rd markers, and normal Ringers solution (without GABA) was applied at the 4th marker pulse.

For assay [5], the system named is chick brain GABAA receptors. Kind of assay: Membrane currents in Xenopus oocyte expressing chick brain GABAA receptors. Format: cell-based. Conditions: various concentrations applied together with 10^-5 M GABA. As to the method:
as §2

Assay [6] concerns GABAA receptors expressed by native mRNAs from the brain. Kind of assay: Xenopus oocytes expressing GABAA receptors from native brain mRNAs of different animal species. Format: cell-based. As to the method:
as §2

The subject of assay [7] is GABArho receptors. Conditions: cited from earlier work.
The mark [8] stands for this setting: pulsed application of GABA 10^-5 M and TPMPA 8×10^-5 M.

T1 sequence (P24046 22-479): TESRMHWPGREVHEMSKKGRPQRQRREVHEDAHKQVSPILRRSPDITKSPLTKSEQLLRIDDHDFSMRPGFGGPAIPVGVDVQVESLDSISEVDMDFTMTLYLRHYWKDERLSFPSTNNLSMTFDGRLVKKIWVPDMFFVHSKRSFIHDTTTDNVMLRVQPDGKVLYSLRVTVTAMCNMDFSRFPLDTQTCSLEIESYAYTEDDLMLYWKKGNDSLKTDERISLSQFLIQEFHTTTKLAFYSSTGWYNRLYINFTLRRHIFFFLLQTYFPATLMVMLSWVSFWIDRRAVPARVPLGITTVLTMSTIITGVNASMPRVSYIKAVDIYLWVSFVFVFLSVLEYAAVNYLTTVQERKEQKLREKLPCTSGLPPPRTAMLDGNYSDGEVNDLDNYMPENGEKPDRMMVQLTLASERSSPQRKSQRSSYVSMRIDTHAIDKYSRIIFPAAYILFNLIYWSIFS

On to `CP(=O)(O)CCCN` [3-aminopropyl(methyl-)phosphinic acid], for which the Ki in assay [1] (read-out: Ki as competitive antagonist at GABArho receptors) was found to be 800 nM. Also, the “effects on GABAA receptors” value in assay [2] and in assay [3] was “no detectable effects” each time.

For the compound `CP(=O)(O)C1=CCNCC1` [Compound 7a, 1,2,5,6-tetrahydropyridine-4-methylphosphinic acid], the “antagonism of GABArho receptors” value is “potent and selective antagonist” in assay [1] (expressed by native bovine retina mRNA); “potent and selective antagonist” in assay [4] (expressed by cloned GABArho receptor RNA). Further, in assay [4] (8×10^-5 M compound applied together with 10^-5 M GABA), the “effect on membrane current response to GABA” value was “abolishes almost completely the response to GABA”. Besides, the “onset of antagonistic action” value in assay [4] (setting [8]) is on record as “rapid in onset”. Besides, the “recovery from antagonistic action” value in assay [4] (setting [8]) is on record as “recovery was also rapid”. Moreover, the “attenuation of currents elicited by activation of GABAA receptors” value in assay [5] is given as “not greatly attenuated until quite high concentration were used”. Further, the “blockage of GABAA receptors compared with GABArho receptors” value in assay [6] is “blockage was less than that of GABArho receptors”.

Turning to `Oc1noc2c1CCNC2` [THIP, 4,5,6,7-tetrahydroisoxazolo-[5,4-c]-pyridin-3-ol], the “action on GABArho receptors” value in assay [1] is “either as weak partial agonists or as competitive antagonists”.

In the case of `NCC(CC(=O)O)c1ccc(Cl)cc1` (stereo not drawn) [baclofen], the “sensitivity of GABArho receptors” value in assay [7] is given as “insensitive”.

Take `CN1CCc2cc3c(cc2[C@H]1[C@@H]1OC(=O)c2c1ccc1c2OCO1)OCO3` [bicuculline]: in assay [7], the “sensitivity of GABArho receptors” value is listed as “insensitive”.

Take `O=C(O)C1=CCNCC1` [isoguvacine]: the “action on GABArho receptors” value in assay [1] is listed as “either as weak partial agonists or as competitive antagonists”.

With `O=C(O)C1CCNCC1` [isonipecotic acid], in assay [1], the “action on GABArho receptors” value was “either as weak partial agonists or as competitive antagonists”.

As a reminder, the Ki is the equilibrium dissociation constant of an inhibitor or competing ligand from its target.
